Several values for one entry are separate records, joined by “and”; a condition that tells them apart may be missing. Equal values may be shown once. Toxic doses and inconclusive results are not listed.
Tested on: L1210 leukemia ip in BDF1 mice, survival T/C
Assay: NCI In Vivo Anticancer Drug Screen. Data for tumor model L1210 Leukemia (intraperitoneal) in B6D2F1 (BDF1) mice
Conditions: endpoint: mean survival time, higher = longer survival
Method in brief: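 Survival endpoint. Drug-treated group vs vehicle group, expressed as T divided by C. Tumor passaged by transplantation.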

[1] = dose: 100.0 mg/kg/injection, schedule: Q01DX009 (ip), vehicle: saline with Tween-80
[2] = dose: 100.0 mg/kg/injection, schedule: Q04DX003 (ip), vehicle: saline with Tween-80
[3] = dose: 100.0 mg/kg/injection, schedule: Q01DX001 (ip), vehicle: saline
[4] = dose: 200.0 mg/kg/injection, schedule: Q01DX001 (ip), vehicle: saline
[5] = dose: 100.0 mg/kg/injection, schedule: Q04DX002 (ip), vehicle: Klucel (hydroxypropylcellulose) (HPC)
[6] = dose: 200.0 mg/kg/injection, schedule: Q04DX002 (ip), vehicle: Klucel (hydroxypropylcellulose) (HPC)
[7] = dose: 400.0 mg/kg/injection, schedule: Q04DX002 (ip), vehicle: Klucel (hydroxypropylcellulose) (HPC)
[8] = dose: 100.0 mg/kg/injection, schedule: Q01DX001 (ip), vehicle: carboxymethylcellulose (CMC)
[9] = dose: 100.0 mg/kg/injection, schedule: Q01DX009 (ip), vehicle: Klucel (hydroxypropylcellulose) (HPC)
[10] = dose: 100.0 mg/kg/injection, schedule: Q04DX003 (ip), vehicle: Klucel (hydroxypropylcellulose) (HPC)
[11] = dose: 200.0 mg/kg/injection, schedule: Q01DX001 (ip), vehicle: carboxymethylcellulose (CMC)
[12] = dose: 200.0 mg/kg/injection, schedule: Q04DX003 (ip), vehicle: Klucel (hydroxypropylcellulose) (HPC)
[13] = dose: 400.0 mg/kg/injection, schedule: Q01DX001 (ip), vehicle: carboxymethylcellulose (CMC)
[14] = dose: 400.0 mg/kg/injection, schedule: Q01DX009 (ip), vehicle: Klucel (hydroxypropylcellulose) (HPC)
[15] = dose: 400.0 mg/kg/injection, schedule: Q04DX003 (ip), vehicle: Klucel (hydroxypropylcellulose) (HPC)
[16] = dose: 200.0 mg/kg/injection, schedule: Q01DX009 (ip), vehicle: Klucel (hydroxypropylcellulose) (HPC)
[17] = dose: 50.0 mg/kg/injection, schedule: Q01DX009 (ip), vehicle: saline

For `CCc1noc(CC)c1CC1=C2CCC3(C)CCC(C)(C)CC3C2(C)CCC1=O` (stereo not drawn), the T/C (dose: 100.0 mg/kg/injection, schedule: Q01DX001 (ip), vehicle: other) was 96 % of control, the T/C [1] was 93 % of control and the T/C (dose: 200.0 mg/kg/injection, schedule: Q01DX001 (ip), vehicle: other) was 94 % of control. For the same compound, the T/C (dose: 200.0 mg/kg/injection, schedule: Q01DX009 (ip), vehicle: saline with Tween-80) was 91 % of control, the T/C (dose: 400.0 mg/kg/injection, schedule: Q01DX001 (ip), vehicle: other) was 97 % of control and the T/C (dose: 400.0 mg/kg/injection, schedule: Q01DX009 (ip), vehicle: saline with Tween-80) was 90 % of control.

For `CCOC(=O)C(C#N)c1cccc(C)c1` (stereo not drawn), the T/C [2] was 95 % of control and the T/C (dose: 200.0 mg/kg/injection, schedule: Q04DX003 (ip), vehicle: saline with Tween-80) was 98 % of control.

In the case of `Cc1ccnc2c1ccc1ccccc12`, the T/C [3] is reported as 100 % of control, the T/C [4] is reported as 98 % of control and the T/C (dose: 400.0 mg/kg/injection, schedule: Q01DX001 (ip), vehicle: saline) is reported as 93 % of control.

`CCOCCN=Cc1ccccc1O.CCOCCN=Cc1ccccc1O.[Co]` was tested, and the T/C (dose: 50.0 mg/kg/injection, schedule: Q01DX001 (ip), vehicle: saline) was 100 % of control, the T/C [3] was 98 % of control and the T/C [4] was 96 % of control.

In the case of `O=[N+]([O-])c1cccc(C=Nc2ccc(CCO)cc2)c1`, the T/C [5] is reported as 104 % of control, the T/C [6] is reported as 121 % of control and the T/C [7] is reported as 107 % of control.

For `CC(C)c1ncc([N+](=O)[O-])n1C`, the T/C (dose: 25.0 mg/kg/injection, schedule: Q04DX003 (ip), vehicle: Klucel (hydroxypropylcellulose) (HPC)) was 97 % of control, the T/C (dose: 50.0 mg/kg/injection, schedule: Q04DX003 (ip), vehicle: Klucel (hydroxypropylcellulose) (HPC)) was 95 % of control and the T/C [8] was 103 % of control. For the same compound, the T/C [9] was 102 % of control, the T/C [10] was 97 % of control and 114 % of control and the T/C [11] was 101 % of control. For the same compound, the T/C [12] was 104 % of control, the T/C [13] was 101 % of control and the T/C [14] was 91 % of control. For the same compound, the T/C [15] was 106 % of control.

With `CCC1(/C(C)=C/C(C)C)C(=O)NC(=O)NC1=O` the T/C (dose: 5.0 mg/kg/injection, schedule: Q01DX001 (ip), vehicle: saline) was 96 % of control and the T/C (dose: 10.0 mg/kg/injection, schedule: Q01DX001 (ip), vehicle: saline) was 101 % of control.

For `O=c1[nH]cnc2c1nnn2C1OC(CO)C(O)C1O` (stereo not drawn), the T/C (dose: 90.0 mg/kg/injection, schedule: Q01DX009 (ip), vehicle: saline) was 155 % of control and 160 % of control and the T/C (dose: 135.0 mg/kg/injection, schedule: Q01DX009 (ip), vehicle: saline) was 163 % of control.

`Cc1ccc(C)c(CCN)c1` was tested, and the T/C (dose: 25.0 mg/kg/injection, schedule: Q01DX009 (ip), vehicle: saline with Tween-80) was 103 % of control, the T/C (dose: 50.0 mg/kg/injection, schedule: Q01DX009 (ip), vehicle: saline with Tween-80) was 98 % of control and the T/C (dose: 50.0 mg/kg/injection, schedule: Q04DX003 (ip), vehicle: saline with Tween-80) was 100 % of control. For the same compound, the T/C [1] was 94 % of control and the T/C [2] was 92 % of control.

In the case of `CS(=O)(=O)OCC(COS(C)(=O)=O)(COS(C)(=O)=O)COS(C)(=O)=O`, the T/C [5] is reported as 96 % of control, the T/C [6] is reported as 92 % of control and the T/C [7] is reported as 107 % of control.

In the case of `O=S(=O)(OC1CC2C=CC1C21CC1)c1ccc(Br)cc1` (stereo not drawn), the T/C (dose: 100.0 mg/kg/injection, schedule: Q01DX001 (ip), vehicle: Klucel (hydroxypropylcellulose) (HPC)) is reported as 98 % of control, the T/C (dose: 200.0 mg/kg/injection, schedule: Q01DX001 (ip), vehicle: Klucel (hydroxypropylcellulose) (HPC)) is reported as 97 % of control and the T/C (dose: 400.0 mg/kg/injection, schedule: Q01DX001 (ip), vehicle: Klucel (hydroxypropylcellulose) (HPC)) is reported as 94 % of control.

For `CNC(=O)NCCCCCCCCCCC(=O)O`, the T/C [9] was 104 % of control, the T/C [16] was 91 % of control and the T/C [14] was 106 % of control.

`Cc1c(Cl)cccc1NC(=O)c1ccccc1` was tested, and the T/C [9] was 93 % of control, the T/C [10] was 91 % of control and the T/C [16] was 96 % of control. For the same compound, the T/C [12] was 106 % of control, the T/C [14] was 100 % of control and the T/C [15] was 98 % of control.

For `O=C(O)c1ccc(OCCOc2ccccc2)c(Cl)c1`, the T/C (dose: 100.0 mg/kg/injection, schedule: Q01DX009 (ip), vehicle: gum acacia) was 97 % of control, the T/C (dose: 200.0 mg/kg/injection, schedule: Q01DX009 (ip), vehicle: gum acacia) was 88 % of control and the T/C (dose: 400.0 mg/kg/injection, schedule: Q01DX009 (ip), vehicle: gum acacia) was 92 % of control.

In the case of `Cc1c([N+](=O)[O-])cc(CCn2cnc3c(=O)[nH]cnc32)cc1[N+](=O)[O-]`, the T/C (dose: 50.0 mg/kg/injection, schedule: Q01DX001 (ip), vehicle: carboxymethylcellulose (CMC)) is reported as 98 % of control, the T/C [8] is reported as 98 % of control and the T/C [11] is reported as 95 % of control. The T/C [13] was 104 % of control.

`Cc1ccc(NC(=O)c2ccc(Cl)cc2)cc1` was tested, and the T/C [9] was 95 % of control, the T/C [10] was 97 % of control and the T/C [16] was 99 % of control. The T/C [12] was 103 % of control, the T/C [14] was 90 % of control and the T/C [15] was 103 % of control.

`O=S(=O)(Nc1cc(S(=O)(=O)c2ccccc2)c(NS(=O)(=O)c2ccccc2)cc1Cl)c1ccccc1` was tested, and the T/C [10] was 88 % of control, the T/C [16] was 92 % of control and the T/C [12] was 88 % of control. For the same compound, the T/C [14] was 87 % of control.

With `O=C(c1ccccc1)c1ccccc1` the T/C (dose: 50.0 mg/kg/injection, schedule: Q01DX009 (ip), vehicle: Klucel (hydroxypropylcellulose) (HPC)) was 96 % of control, the T/C (dose: 75.0 mg/kg/injection, schedule: Q04DX003 (ip), vehicle: saline) was 100 % of control and the T/C [9] was 101 % of control. The T/C (dose: 150.0 mg/kg/injection, schedule: Q04DX003 (ip), vehicle: saline) was 100 % of control, the T/C [16] was 97 % of control and the T/C (dose: 300.0 mg/kg/injection, schedule: Q04DX003 (ip), vehicle: saline) was 104 % of control.

`Cc1ccc(S(=O)(=O)N/N=C2/CC3CCCCCCC23)cc1` (stereo not drawn) was tested, and the T/C (dose: 50.0 mg/kg/injection, schedule: Q04DX002 (ip), vehicle: Klucel (hydroxypropylcellulose) (HPC)) was 104 % of control, the T/C [5] was 97 % of control and the T/C [6] was 111 % of control.

With `COc1cc2c(cc1OC)C(OC)N(C)c1c-2ccc2cc(OC)c(OC)cc12` (stereo not drawn) the T/C (dose: 100.0 mg/kg/injection, schedule: Q01DX009 (ip), vehicle: water) was 110 % of control, the T/C (dose: 100.0 mg/kg/injection, schedule: Q04DX003 (ip), vehicle: water) was 103 % of control and the T/C (dose: 200.0 mg/kg/injection, schedule: Q04DX003 (ip), vehicle: water) was 115 % of control. The T/C (dose: 400.0 mg/kg/injection, schedule: Q01DX009 (ip), vehicle: water) was 104 % of control and 122 % of control and the T/C (dose: 400.0 mg/kg/injection, schedule: Q04DX003 (ip), vehicle: water) was 113 % of control.

`NNS(=O)(=O)Cc1ccccc1` was tested, and the T/C [3] was 100 % of control and the T/C [4] was 95 % of control.

In the case of `CC1(C)CC(=NNC(N)=S)CC(C)(C)N1O`, the T/C (dose: 25.0 mg/kg/injection, schedule: Q04DX002 (ip), vehicle: saline) is reported as 102 % of control, the T/C (dose: 50.0 mg/kg/injection, schedule: Q04DX002 (ip), vehicle: saline with Tween-80) is reported as 93 % of control and the T/C (dose: 50.0 mg/kg/injection, schedule: Q04DX002 (ip), vehicle: saline) is reported as 94 % of control. For the same compound, the T/C (dose: 100.0 mg/kg/injection, schedule: Q04DX002 (ip), vehicle: saline with Tween-80) was 101 % of control.

With `COc1ccc(-c2ccc(CC(N)=O)cc2)cc1Cl` the T/C [8] was 91 % of control, the T/C [11] was 94 % of control and the T/C [13] was 89 % of control.

With `CSc1nc(N)c(N=Nc2ccc(S(=O)(=O)Nc3nccc(C)n3)cc2)c(=O)[nH]1` the T/C [8] was 86 % of control, the T/C [11] was 97 % of control and the T/C [13] was 97 % of control.

For `C1OCC2CCC(CC2)CO1`, the T/C [17] was 95 % of control, the T/C (dose: 100.0 mg/kg/injection, schedule: Q01DX009 (ip), vehicle: saline) was 98 % of control and the T/C (dose: 200.0 mg/kg/injection, schedule: Q01DX009 (ip), vehicle: saline) was 97 % of control.

In the case of `Nc1cc(=O)[nH]c(C(F)(F)F)n1`, the T/C (dose: 29.0 mg/kg/injection, schedule: Q01DX Z (ip), vehicle: saline) is reported as 119 % of control, the T/C (dose: 45.0 mg/kg/injection, schedule: Q01DX Z (ip), vehicle: saline) is reported as 98 % of control and the T/C (dose: 67.0 mg/kg/injection, schedule: Q01DX Z (ip), vehicle: saline) is reported as 106 % of control. The T/C (dose: 100.0 mg/kg/injection, schedule: Q01DX Z (ip), vehicle: saline) was 104 % of control.

With `O=[N+]([O-])c1ccc(C[n+]2ccccc2)cc1` the T/C [17] was 89 % of control.

In the case of `Cc1ccc[n+](CCc2c[nH]c3ccccc23)c1`, the T/C [2] is reported as 90 % of control.
